The values below come from patent EP0326329B1, “Quinazoline derivatives useful as insecticides” (Dow AgroSciences LLC, priority 1988, dated 1989).

Holding throughout (type): in vivo
Assay [1] relates to Pyricularia oryzae (rice blast). The following applies: disease control rating, foliar spray, host rice; 400 ppm (+++ at 100 ppm).
Assay [2] deals with southern armyworm (Spodopetra eridania Cramer). The experiment in a line: Mite/insect screen, sprayed squash leaves (SAW). Conditions: Spodoptera eridania, percent mortality, read-out: SAW RESULTS %; for mortality at 200 ppm: spray rate 200 ppm; for mortality at 400 ppm: spray rate 400 ppm. The method, boiled down: (§1)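 Percent mortality and phytotoxicity are the read-outs, assessed after standard exposure periods. Test solutions, made in 50:50 acetone/alcohol with two sulfonate/nonionic emulsifier blends and diluted in water, are sprayed to runoff on both leaf surfaces, which then dry for one hour.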

Assay [3] concerns Erysiphe graminis tritici (powdery mildew). Description: Greenhouse Test 1, foliar spray fungicide screen (POWD MDEW), host wheat. Conditions: disease control rating, 400 ppm (+++ at 100 ppm).
The subject of assay [4] is Botrytis cinerea (gray mold). The experiment in a line: Greenhouse Test 1, foliar spray fungicide screen (GRAY MOLD), host grape berries. Conditions: disease control rating, 400 ppm (+++ at 100 ppm).
Assay [5] deals with Pseudoperonospora cubensis (downy mildew). The experiment in a line: Greenhouse Test 1, foliar spray fungicide screen (DOWN MDEW), host squash. Conditions: disease control rating, 400 ppm (+++ at 100 ppm).
Assay [6] has as its system Southern corn rootworm (Diabrotica undecimpuctata howardi Barber). Description: Mite/insect screen, soil treatment (CRW). Conditions: Diabrotica, percent mortality, soil treatment, read-out: CRW RESULTS %; for mortality at 12 ppm: CRW rate 12.00 ppm; for mortality at 24 ppm: CRW rate 24.00 ppm. The method, boiled down: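 Compounds dissolved in acetone/alcohol (50:50) with Toximul R/S emulsifiers, diluted with water. Soil (15 g, with presoaked corn seed) treated with 1 mL test solution, dried 6–12 h, then five 2–3 instar larvae added; held at 23°C. Percent mortality and phytotoxicity scored after standard exposure periods.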

Assay [7] concerns Twospotted spider mites (Tetranychus urticae Koch). Description: Mite/insect screen, sprayed squash cotyledons (SM). The following applies: Tetranychus urticae, percent mortality, read-out: SM RESULTS %; for mortality at 200 ppm: spray rate 200 ppm; for mortality at 400 ppm: spray rate 400 ppm. The method, boiled down:
as §1

Assay [8] deals with Puccinia recondita tritici (leaf rust). Description: Greenhouse Test 1, foliar spray fungicide screen (LEAF RUST), host wheat. Conditions: disease control rating, 400 ppm (+++ at 100 ppm).
The subject of assay [9] is melon aphids (Aphis gossypii Glover). The experiment in a line: Mite/insect screen, sprayed squash cotyledons (MA). Conditions: Aphis gossypii, percent mortality, read-out: MA RESULTS %; for mortality at 200 ppm: spray rate 200 ppm; for mortality at 400 ppm: spray rate 400 ppm. An outline of the steps:
as §1

For `CC(C)c1ccc(CCNc2ncnc3cc(Cl)ccc23)cc1` [Example 40, 7-chloro-N-[2-[4-(i-propyl)phenyl]ethyl]-4-quinazolinamine], in [1], the “RICE BLAST” value is recorded as “++ (++ = 90-100% control at 400 ppm)”. The mortality at 200 ppm amounted to 40% in [2], 80% in [7] and 20% in assay [9]. The mortality at 400 ppm in assay [2] is 0%; in assay [7] it was 90%; in assay [9] it was 0%. In assay [3], the “POWD MDEW” value is given as “+++ (+++ = 90-100% control at 100 ppm)”. In assay [4], the “GRAY MOLD” value is recorded as “- (- = 0-19% control at 400 ppm)”. Besides, the “DOWN MDEW” value in assay [5] is “+++ (+++ = 90-100% control at 100 ppm)”. The mortality at 12 ppm in assay [6] was found to be 0%. The mortality at 24 ppm in assay [6] came out at 0%. Moreover, the “LEAF RUST” value in assay [8] is “+++ (+++ = 90-100% control at 100 ppm)”.

With `CCOc1ccc(CCCOc2ncnc3c(F)cccc23)cc1` [Example 125, 8-fluoro-4-[3-[4-ethoxyphenyl]propoxy]quinazoline], the “RICE BLAST” value in [1] was “+ (+ = 20-89% control at 400 ppm)”. In assay [2], the mortality at 200 ppm is 0% and the mortality at 400 ppm stood at 0%. In addition, the “POWD MDEW” value in [3] is given as “+ (+ = 20-89% control at 400 ppm)”. Further, in assay [4], the “GRAY MOLD” value is “- (- = 0-19% control at 400 ppm)”. Also, the “DOWN MDEW” value in [5] was “+ (+ = 20-89% control at 400 ppm)”. Besides, in [6], the mortality at 12 ppm worked out at 0% and the mortality at 24 ppm was 0%. For the same compound, in [7], the mortality at 200 ppm was 0% and the mortality at 400 ppm was 0%. Also, the “LEAF RUST” value in [8] was “+ (+ = 20-89% control at 400 ppm)”. Also, in assay [9], the mortality at 200 ppm is 0% and the mortality at 400 ppm was determined as 0%.

Take `Clc1ccc(CCCc2ncnc3ccccc23)cc1` [Example 117, 4-[3-(4-chlorophenyl)propyl]quinazoline]: the “RICE BLAST” value in assay [1] is reported as “++ (++ = 90-100% control at 400 ppm)”. Besides, in assay [2], the mortality at 200 ppm turned out to be 0% and the mortality at 400 ppm turned out to be 0%. For the same compound, the “POWD MDEW” value in [3] was “+++ (+++ = 90-100% control at 100 ppm)”. For the same compound, the “GRAY MOLD” value in [4] was “- (- = 0-19% control at 400 ppm)”. The “DOWN MDEW” value in [5] was “++ (++ = 90-100% control at 400 ppm)”. Further, in assay [6], the mortality at 12 ppm came out at 0% and the mortality at 24 ppm came out at 0%. Further, in assay [7], the mortality at 200 ppm amounted to 100% and the mortality at 400 ppm came out at 0%. The “LEAF RUST” value in assay [8] is “+++ (+++ = 90-100% control at 100 ppm)”. Also, in assay [9], the mortality at 200 ppm is 90% and the mortality at 400 ppm is 0%.

`c1ccc2c(CCNc3ncnc4ccccc34)cccc2c1` [Example 23, N-[2-(1-naphthyl)ethyl]-4-quinazolinamine]: the “RICE BLAST” value in assay [1] was “+ (+ = 20-89% control at 400 ppm)”. Besides, in [2], the mortality at 200 ppm stood at 0% and the mortality at 400 ppm was 0%. Besides, the “POWD MDEW” value in assay [3] is on record as “- (- = 0-19% control at 400 ppm)”. For the same compound, the “GRAY MOLD” value in assay [4] is “- (- = 0-19% control at 400 ppm)”. The “DOWN MDEW” value in assay [5] is on record as “+ (+ = 20-89% control at 400 ppm)”. In assay [6], the mortality at 12 ppm stood at 0% and the mortality at 24 ppm is 0%. Moreover, in [7], the mortality at 200 ppm is 0% and the mortality at 400 ppm was determined as 0%. In addition, the “LEAF RUST” value in assay [8] is recorded as “+ (+ = 20-89% control at 400 ppm)”. Further, in [9], the mortality at 200 ppm was determined as 0% and the mortality at 400 ppm came out at 0%.

Regarding `c1ccc(C(COc2ncnc3ccccc23)c2ccccc2)cc1` [Example 67, 4-(2,2-diphenylethoxy)quinazoline], in assay [1], the “RICE BLAST” value is “+ (+ = 20-89% control at 400 ppm)”. For the same compound, the mortality at 400 ppm is 0% in assay [2], 60% in assay [7] and 30% in [9]. The “POWD MDEW” value in [3] is given as “+ (+ = 20-89% control at 400 ppm)”. Further, the “GRAY MOLD” value in assay [4] is “- (- = 0-19% control at 400 ppm)”. Moreover, the “DOWN MDEW” value in assay [5] is given as “++ (++ = 90-100% control at 400 ppm)”. Moreover, the mortality at 24 ppm in assay [6] worked out at 0%. The “LEAF RUST” value in assay [8] is reported as “- (- = 0-19% control at 400 ppm)”.

As to `CC(C)c1ccc(CCNc2ncnc3c(F)cccc23)cc1` [Example 96, 8-fluoro-N-[2-[4-(i-propyl)phenyl]ethyl]-4-quinazolinamine], the “RICE BLAST” value in assay [1] is recorded as “+++ (+++ = 90-100% control at 100 ppm)”. Besides, in assay [2], the mortality at 200 ppm came to 100% and the mortality at 400 ppm was determined as 100%. In addition, the “POWD MDEW” value in assay [3] is reported as “+++ (+++ = 90-100% control at 100 ppm)”. Further, the “GRAY MOLD” value in [4] is listed as “- (- = 0-19% control at 400 ppm)”. In assay [5], the “DOWN MDEW” value was “+++ (+++ = 90-100% control at 100 ppm)”. Also, in assay [6], the mortality at 12 ppm was determined as 0% and the mortality at 24 ppm was determined as 0%. Also, in [7], the mortality at 200 ppm turned out to be 50% and the mortality at 400 ppm stood at 0%. In assay [8], the “LEAF RUST” value is “+++ (+++ = 90-100% control at 100 ppm)”. In [9], the mortality at 200 ppm amounted to 50% and the mortality at 400 ppm came out at 0%.

In the case of `CC(C)(C)c1ccc(CCOc2ncnc3ccc(Cl)cc23)cc1` [Example 174, 6-chloro-4-[2-[4-(t-butyl)phenyl]ethoxy]quinazoline], the “RICE BLAST” value in assay [1] is “++ (++ = 90-100% control at 400 ppm)”. In addition, in assay [2], the mortality at 200 ppm amounted to 0% and the mortality at 400 ppm is 0%. Also, the “POWD MDEW” value in assay [3] is given as “+ (+ = 20-89% control at 400 ppm)”. Further, the “GRAY MOLD” value in assay [4] is “- (- = 0-19% control at 400 ppm)”. Moreover, in [5], the “DOWN MDEW” value is “++ (++ = 90-100% control at 400 ppm)”. In [6], the mortality at 12 ppm came out at 0% and the mortality at 24 ppm worked out at 100%. Further, in [7], the mortality at 200 ppm worked out at 80% and the mortality at 400 ppm amounted to 40%. Moreover, in [8], the “LEAF RUST” value is reported as “- (- = 0-19% control at 400 ppm)”. Moreover, in [9], the mortality at 200 ppm worked out at 0% and the mortality at 400 ppm is 0%.

With `CC(C)(C)c1ccc(CCOc2ncnc3c(Cl)cccc23)cc1` [Example 185, 8-chloro-4-[2-[4-(t-butyl)phenyl]ethoxy]quinazoline], the “RICE BLAST” value in assay [1] is given as “++ (++ = 90-100% control at 400 ppm)”. Further, in [2], the mortality at 200 ppm was determined as 0% and the mortality at 400 ppm was 0%. For the same compound, the “POWD MDEW” value in [3] is listed as “+ (+ = 20-89% control at 400 ppm)”. Further, in [4], the “GRAY MOLD” value is listed as “- (- = 0-19% control at 400 ppm)”. The “DOWN MDEW” value in assay [5] was “++ (++ = 90-100% control at 400 ppm)”. Moreover, in [6], the mortality at 12 ppm amounted to 0% and the mortality at 24 ppm is 0%. Further, in assay [7], the mortality at 200 ppm came out at 80% and the mortality at 400 ppm was determined as 30%. Moreover, the “LEAF RUST” value in assay [8] is recorded as “+ (+ = 20-89% control at 400 ppm)”. In assay [9], the mortality at 200 ppm was determined as 50% and the mortality at 400 ppm turned out to be 30%.

As to `c1ccc(Sc2cccc(CCOc3ncnc4ccccc34)c2)cc1` [Example 137, 4-[2-[3-(phenylthio)phenyl]ethoxy]quinazoline], in [1], the “RICE BLAST” value is given as “+++ (+++ = 90-100% control at 100 ppm)”. For the same compound, in assay [2], the mortality at 200 ppm turned out to be 0% and the mortality at 400 ppm came out at 0%. For the same compound, the “POWD MDEW” value in assay [3] was “+++ (+++ = 90-100% control at 100 ppm)”. The “GRAY MOLD” value in assay [4] is “- (- = 0-19% control at 400 ppm)”. For the same compound, the “DOWN MDEW” value in [5] is reported as “+++ (+++ = 90-100% control at 100 ppm)”. Moreover, in assay [6], the mortality at 12 ppm came out at 0% and the mortality at 24 ppm was 100%. Further, in assay [7], the mortality at 200 ppm came to 0% and the mortality at 400 ppm amounted to 0%. Also, the “LEAF RUST” value in assay [8] was “+++ (+++ = 90-100% control at 100 ppm)”. Moreover, in assay [9], the mortality at 200 ppm turned out to be 60% and the mortality at 400 ppm stood at 0%.

With `Brc1ccc2ncnc(NCCc3ccc(Oc4ccccc4)cc3)c2c1` [Example 177, 6-bromo-N-[2-(4-phenoxyphenyl)ethyl]-4-quinazolinamine], the “RICE BLAST” value in assay [1] is listed as “+++ (+++ = 90-100% control at 100 ppm)”. Besides, the mortality at 200 ppm in [2] turned out to be 0%; in [7] it was 0%; in assay [9], 80%. The mortality at 400 ppm turned out to be 0% in assay [2], 50% in assay [7] and 50% in assay [9]. For the same compound, the “POWD MDEW” value in assay [3] is “- (- = 0-19% control at 400 ppm)”. Further, the “GRAY MOLD” value in [4] is given as “+ (+ = 20-89% control at 400 ppm)”. The “DOWN MDEW” value in assay [5] was “+++ (+++ = 90-100% control at 100 ppm)”. For the same compound, the mortality at 12 ppm in assay [6] stood at 0%. Besides, the mortality at 24 ppm in assay [6] turned out to be 0%. Also, in assay [8], the “LEAF RUST” value is “+++ (+++ = 90-100% control at 100 ppm)”.
